These results are taken from US10022376B2 (Pfizer Inc., priority 2014, dated 2018).

Where a name gives a salt, the structure may show the parent alone.

What is called IC50 is the point on the concentration scale where inhibition reaches its midpoint. The low end stands for inhibition by little substance, the high end for a need for much substance.

The first assay has as its system rhIFNγ stimulated STAT-3 phosphorylation in the A549 human epithelial cell line. Kind of assay: A549 Cell Assay: Inhibition of pSTAT3. Type of assay: cell-based. Conditions: A549 cells. The essentials: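 Percent inhibition of STAT3 Tyr705 phosphorylation was measured by MSD immunoassay of cell lysates. A549 cells were given compound for 1 h at 37° C (final 0.3 nM to 10 μM, 0.1% DMSO, in 0.2% BSA DMEM), followed by 30 min of rhIFNγ stimulation at 20 ng/mL final. Unstimulated DMSO wells served as background.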
In the case of `CNC(=O)c1n[nH]c2nc(-c3cc(F)c(O)cc3CC(F)(F)F)nc(NCc3ccccc3N(C)S(C)(=O)=O)c12` [Example 94], half-maximal inhibition (IC50) required 126 nM.

Still in this assay, the particulars now being: Homo sapiens; A549 cells.
With `CCc1cc(O)c(F)cc1-c1cc2[nH]nc(C(=O)NC)c2c(NCc2c(F)cccc2N(C)S(C)(=O)=O)n1` [Example 8, 6-(2-ethyl-5-fluoro-4-hydroxyphenyl)-4-({2-fluoro-6-[methyl(methylsulfonyl)amino]benzyl}amino)-N-methyl-1H-pyrazolo[4,3-c]pyridine-3-carboxamide], the IC50 was 6.4 nM.
On the same count and under the same terms, for `CN(c1ccc(O)cc1CNc1nc(-c2cc(F)c(O)cc2CC(F)(F)F)nc2[nH]nc(C(N)=O)c12)S(=O)(=O)c1ccccc1` [Example 108, 4-((2-(N-methylphenylsulfonamido)-5-hydroxybenzyl)amino)-6-(5-fluoro-4-hydroxy-2-(2,2,2-trifluoroethyl)phenyl)-1H-pyrazolo[3,4-d]pyrimidine-3-carboxamide] the value was 1500 nM; for `CCc1cc(O)c(F)cc1-c1cc2[nH]nc(C(=O)NC)c2c(NCc2ccccc2N(C)S(N)(=O)=O)n1` [Example 73, 6-(2-ethyl-5-fluoro-4-hydroxyphenyl)-N-methyl-4-({2-[methyl(sulfamoyl)amino]benzyl}amino)-1H-pyrazolo[4,3-c]pyridine-3-carboxamide], 35.6 nM.
Turning to `CCc1cc(O)c(F)cc1-c1cc2[nH]ncc2c(NCc2ccccc2N(C)S(=O)(=O)CC)n1` [Example 135, N-[2-({[6-(2-ethyl-5-fluoro-4-hydroxyphenyl)-1H-pyrazolo[4,3-c]pyridin-4-yl]amino}methyl)-phenyl]-N-methylethanesulfonamide hydrochloride], half-maximal inhibition (IC50) required 3.3 nM.
On to `CCN(c1nccnc1CNc1nc(-c2cc(F)c(O)cc2CC(F)(F)F)cc2[nH]nc(C(N)=O)c12)S(C)(=O)=O` [Example 80, 4-[({3-[ethyl(methylsulfonyl)amino]pyrazin-2-yl}methyl)amino]-6-[5-fluoro-4-hydroxy-2-(2,2,2-trifluoroethyl)phenyl]-1H-pyrazolo[4,3-c]pyridine-3-carboxamide], for which the IC50 came out at 197 nM.
`CN(c1ccccc1CNc1nc(-c2cc(F)c(O)cc2CC(F)(F)F)nc2[nH]nc(C(N)=O)c12)S(=O)(=O)c1ccccc1` [Example 96, 6-(5-Fluoro-4-hydroxy-2-(2,2,2-trifluoroethyl)phenyl)-4-((2-(N-methylphenylsulfonamido)benzyl)amino)-1H-pyrazolo[3,4-d]pyrimidine-3-carboxamide] showed an IC50 of 2870 nM.
`CNC(=O)c1n[nH]c2cc(-c3cc(F)c(O)cc3CC(F)(F)F)nc(NCc3ccccc3N(C)S(=O)(=O)CCOC)c12` [Example 60, 6-[5-fluoro-4-hydroxy-2-(2,2,2-trifluoroethyl)phenyl]-4-[(2-{[(2-methoxyethyl)sulfonyl](methyl)amino}benzyl)amino]-N-methyl-1H-pyrazolo[4,3-c]pyridine-3-carboxamide] gave a half-maximal inhibitory concentration (IC50) of 34.4 nM.
On the same count and under the same terms, the figure for `CN(c1ccc(O)cc1CNc1nc(-c2cc(F)c(O)cc2CC(F)(F)F)cc2[nH]nc(C(N)=O)c12)S(=O)(=O)c1ccccc1` [Example 42, 6-[5-fluoro-4-hydroxy-2-(2,2,2-trifluoroethyl)phenyl]-4-({5-hydroxy-2-[methyl(phenylsulfonyl)amino]benzyl}amino)-1H-pyrazolo[4,3-c]pyridine-3-carboxamide] is 645 nM.
`CCc1cc(O)c(F)cc1-c1cc2[nH]nc(C(=O)NC)c2c(N[C@@H](C)c2ccccc2N(C)S(C)(=O)=O)n1` [Example 39, 6-(2-Ethyl-5-fluoro-4-hydroxyphenyl)-N-methyl-4-{[(1S)-1-{2-[methyl(methylsulfonyl)amino]phenyl}ethyl]amino}-1H-pyrazolo[4,3-c]pyridine-3-carboxamide]: inhibition was half-maximal at 60.9 nM (IC50).
As for `CCc1cc(O)c(F)cc1-c1cc2[nH]nc(C(=O)NC)c2c(NCc2ccc(O)cc2N(C)S(C)(=O)=O)n1` [Example 29, 6-(2-Ethyl-5-fluoro-4-hydroxyphenyl)-4-({4-hydroxy-2-[methyl (methylsulfonyl)amino]benzyl}amino)-N-methyl-1H-pyrazolo[4,3-c]pyridine-3-carboxamide], inhibition was half-maximal at 86.9 nM (IC50).
Molecule `CN(c1ccc(O)cc1CNc1nc(-c2cc(F)c(O)cc2CC(F)(F)F)nc2[nH]nc(-c3nnc(C4CCN(C(N)=O)CC4)[nH]3)c12)S(C)(=O)=O` [Example 167, 4-(5-{6-[5-Fluoro-4-hydroxy-2-(2,2,2-trifluoroethyl)phenyl]-4-({5-hydroxy-2-[methyl(methylsulfonyl)amino]benzyl}amino)-1H-pyrazolo[3,4-d]pyrimidin-3-yl}-4H-1,2,4-triazol-3-yl)piperidine-1-carboxamide] registered an IC50 above 10000 nM.
Same read-out and setting: the figure for `CNC(=O)c1n[nH]c2cc(-c3cc(F)c(O)cc3CC(F)(F)F)nc(NCc3cc(Cl)ccc3N(C)S(C)(=O)=O)c12` [Example 15, 4-({5-chloro-2-[methyl(methylsulfonyl)amino]benzyl}amino)-6-[5-fluoro-4-hydroxy-2-(2,2,2-trifluoroethyl)phenyl]-N-methyl-1H-pyrazolo[4,3-c]pyridine-3-carboxamide] is 92.4 nM; for `CCN(c1ncccc1CNc1nc(-c2cc(F)c(O)cc2CC(F)(F)F)cc2[nH]nc(C(N)=O)c12)S(C)(=O)=O` [Example 52, 4-[({2-[ethyl(methylsulfonyl)amino]pyridin-3-yl}methyl)amino]-6-[5-fluoro-4-hydroxy-2-(2,2,2-trifluoroethyl)phenyl]-1H-pyrazolo[4,3-c]pyridine-3-carboxamide] it is 74.3 nM.
As to `CCc1cc(O)c(F)cc1-c1cc2[nH]nc(C(N)=O)c2c(NCc2ccc(O)cc2N(C)S(C)(=O)=O)n1` [Example 30, 6-(2-Ethyl-5-fluoro-4-hydroxyphenyl)-4-({4-hydroxy-2-[methyl(methylsulfonyl)amino]benzyl}amino)-1H-pyrazolo[4,3-c]pyridine-3-carboxamide], the IC50 worked out at 164 nM.
`CCc1cc(O)c(F)cc1-c1cc2[nH]nc(-c3nc(C)c[nH]3)c2c(NCc2ccccc2N(C)S(C)(=O)=O)n1` [Example 159, N-[2-({[6-(2-Ethyl-5-fluoro-4-hydroxyphenyl)-3-(4-methyl-1H-imidazol-2-yl)-1H-pyrazolo[4,3-c]pyridin-4-yl]amino}methyl)phenyl]-N-methylmethanesulfonamide] gave a half-maximal inhibitory concentration (IC50) of 18.7 nM.
The same measure, in the same setting: the figure for `CNC(=O)c1n[nH]c2cc(-c3cc(F)c(O)cc3CC(F)(F)F)nc(NCc3ccccc3N(C)S(=O)(=O)c3cccnc3)c12` [Example 68, 6-[5-fluoro-4-hydroxy-2-(2,2,2-trifluoroethyl)phenyl]-N-methyl-4-({2-[methyl(pyridin-3-ylsulfonyl)amino]benzyl}amino)-1H-pyrazolo[4,3-c]pyridine-3-carboxamide] is 43.9 nM; for `CNC(=O)c1n[nH]c2cc(-c3cc(F)c(O)cc3CC(F)(F)F)nc(NCc3cccnc3N(C)S(C)(=O)=O)c12` [Example 53, 6-[5-fluoro-4-hydroxy-2-(2,2,2-trifluoroethyl)phenyl]-N-methyl-4-[({2-[methyl(methylsulfonyl)amino]pyridin-3-yl}methyl)amino]-1H-pyrazolo[4,3-c]pyridine-3-carboxamide] it is 21.3 nM; for `CCc1cc(O)c(F)cc1-c1cc2[nH]nc(C(=O)NC)c2c(NCCc2ccc(O)cc2)n1` [Example 4, 6-(2-ethyl-5-fluoro-4-hydroxyphenyl)-4-{[2-(4-hydroxyphenyl)ethyl]amino}-N-methyl-1H-pyrazolo[4,3-c]pyridine-3-carboxamide] it is 29.7 nM.
